Laboratory results from ChEMBL document CHEMBL5120782, “Structure and Candidate Biosynthetic Gene Cluster of a Manumycin-Type Metabolite from Salinispora pacifica” (J Nat Prod, 2022).

Legend:
[1] = Antibacterial activity against Bacillus oceanisediminis CNY-977 assessed as reduction in microbial growth incubated for 18 hrs by CLSI based method; assay type: functional; details: Cytobacillus oceanisediminis
NCI-H460 = experiment: Cytotoxicity against human NCI-H460 cells assessed as reduction in cell viability incubated for 48 hrs by MTT assay; assay type: functional, cell-based; details: NCI-H460, 48 h

| SMILES | MIC [1] [µM] | EC50 (NCI-H460) [µM] |
| --- | --- | --- |
| CC(C)=C[C@H](C)C[C@H](C)/C=C(\CO)C(=O)NC1=C[C@](O)(CCC(N)=O)[C@H]2O[C@H]2C1=O | 50 | – |
| CCCC/C=C/C=C/C=C/C=N/NN=O | – | 5.5 |
